This note sets out measurements from PubChem BioAssay (NCI).

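How tested: cells in 96-well plates exposed to compound for 48 hours at five concentrations. TGI: concentration producing complete growth inhibition.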

Test in all cases: NCI-60 cell line screen, 48 h
In test [1] the test system is SK-MEL-5 melanoma.
In test [2] the test system is SK-MEL-2 melanoma.
The subject of test [3] is EKVX NSCLC.
Test [4] relates to NCI/ADR-RES ovarian.
In test [5] the test system is HOP-92 NSCLC.
For test [6], the system named is NCI-H23 lung.
For test [7], the system named is UO-31 renal.
In test [8] the test system is LOX IMVI melanoma.
Test [9] concerns TK-10 renal.
In test [10] the test system is A549 NSCLC.
For test [11], the system named is BT-549 breast.
In test [12] the test system is T-47D breast.
In test [13] the test system is M14 melanoma.
For test [14], the system named is KM12 colon.
Test [15] concerns MCF7 breast.
In test [16] the test system is UACC-62 melanoma.
Test [17] concerns DU-145 prostate.

Consider `CCOC(=O)c1nc2ccc(C(F)(F)F)cc2nc1NCc1ccc(OC)cc1`, for which the TGI in test [1], in test [2], in [3], in test [4], in test [5] and in test [6] was over 100 µM each time. Moreover, the TGI in test [7], in test [8], in [9], in test [10], in test [11] and in test [12] was over 100 µM in each case. The TGI in test [13], in test [14], in test [15] and in test [16] was over 100 µM throughout.
Consider `N#CC(C(=O)c1cccnc1Cl)c1nc2cc(C(F)(F)F)ccc2s1` (stereo not given), for which the TGI was over 100 µM in test [1]; over 100 µM in [17]; over 100 µM in [3]; over 100 µM in test [4]; 54.4 µM in [5]; over 100 µM in test [6]. Besides, the TGI in [7], in test [8], in test [9], in test [10], in [11] and in test [12] was over 100 µM each time. Also, the TGI in test [13] and in test [14] was over 100 µM in each case.
As to `O=C1C[C@H](c2ccccc2)O[C@@H](c2ccccc2)C1`, the TGI in test [1], in [2], in [17], in test [3], in test [4] and in test [5] was over 100 µM throughout. For the same compound, the TGI in test [6], in [7], in test [8], in test [10], in test [11] and in test [12] was over 100 µM throughout. For the same compound, the TGI in test [13], in test [14], in test [15] and in [16] was over 100 µM throughout.
For `COc1ccc(C2N(c3ccc(F)cc3)C(=O)N3C(c4ccc(OC)cc4)N(c4ccc(F)cc4)C(=O)N23)cc1` (stereo not given), the TGI in test [1], in test [2], in test [17], in test [3], in [4] and in [5] was over 100 µM throughout. The TGI in [6], in test [7], in [8], in test [9], in test [10] and in test [11] was over 100 µM each time. Further, the TGI in [12], in [13], in [14] and in test [16] was over 100 µM throughout.
As to `CCOC(=O)c1c(N)n(-c2ccccc2)c(=O)n(-c2ccccc2)c1=O`, the TGI in [1], in [2], in test [17], in [5], in test [6] and in [7] was over 100 µM throughout. Further, the TGI in test [8], in [9], in test [10], in [11], in test [12] and in test [13] was over 100 µM in each case. For the same compound, the TGI in test [14], in test [15] and in test [16] was over 100 µM each time.
Take `Cc1cc2c(c(C=Nc3ccccc3O)c1)OC1(C=C2)Oc2ccccc2C(=O)N1C` (stereo not given): the TGI in test [1] was 36.4 µM; in test [2], 50 µM; in test [17], 39.9 µM; in test [3] it was 40.5 µM; in test [4], 37.5 µM; in [5], 32.2 µM. Besides, the TGI in test [6] was found to be 34.6 µM; in test [7], 31.4 µM; in test [8], 25.4 µM; in test [9], 48 µM; in test [10], 70.8 µM; in test [11], 47.8 µM. Moreover, the TGI in test [12] was found to be 8.45 µM; in test [13] it was 57.5 µM; in [14], 41.3 µM; in [16], 36.2 µM.
`C[C@@H](c1ccccc1)n1c(N)c(-c2ccccn2)c2ccc([N+](=O)[O-])cc2c1=O`: the TGI in test [1], in test [2], in test [17], in test [4], in test [5] and in test [6] was over 100 µM in each case. The TGI in test [7], in [8], in [9], in test [10], in test [11] and in [12] was over 100 µM in each case. Moreover, the TGI in [14] and in test [16] was over 100 µM throughout.
Regarding `CC1=CC(=O)CC(C)(C)C1/C=C/C(C)=C/C=C/C(C)=C/C=C/C=C(C)/C=C/C=C(C)/C=C/C1C(C)=CC(=O)CC1(C)C` (stereo not given), the TGI in test [1] was over 100 µM; in test [2], over 100 µM; in test [17], over 100 µM; in [3], over 100 µM; in [4] it was over 100 µM; in [5], 62.8 µM. The TGI was over 100 µM in test [6]; over 100 µM in test [7]; 85.6 µM in [8]; over 100 µM in [9]; over 100 µM in test [12]; over 100 µM in [13]. Further, the TGI in [14] and in [15] was over 100 µM each time.
Regarding `O=c1oc2ccccc2nc1/C=C(\O)c1ccc(Cl)cc1`, the TGI in test [1], in [2], in test [17], in test [3], in test [4] and in test [6] was over 100 µM throughout. The TGI in [7], in test [9], in test [10], in test [11], in [12] and in test [13] was over 100 µM each time. The TGI in test [14], in test [15] and in test [16] was over 100 µM in each case.
Regarding `c1ccc([P+](CCSCCSCC[P+](c2ccccc2)(c2ccccc2)c2ccccc2)(c2ccccc2)c2ccccc2)cc1`, the TGI in test [1], in test [2], in test [17], in [3], in test [4] and in test [5] was over 100 µM in each case. The TGI in [6], in [7], in test [9], in test [10], in test [11] and in test [12] was over 100 µM in each case. For the same compound, the TGI in [13], in [14], in [15] and in test [16] was over 100 µM each time.
`N#Cc1nc(CCN2C(=O)c3ccccc3C2=O)oc1N`: the TGI in test [1], in [2], in test [17], in test [3], in test [4] and in test [6] was over 100 µM each time. Moreover, the TGI in test [7], in test [8], in [9], in test [10], in [11] and in test [12] was over 100 µM throughout. Moreover, the TGI in test [13], in test [14] and in test [15] was over 100 µM each time.
Consider `COC(=O)C1CCC(=O)N1CN(C(C)=O)c1ccccc1Cl` (stereo not given), for which the TGI in [1], in test [2], in test [17], in [3], in test [4] and in test [5] was over 100 µM each time. Further, the TGI in [6], in test [7], in test [8], in [9], in test [10] and in [12] was over 100 µM each time. Further, the TGI in [13], in [14], in test [15] and in test [16] was over 100 µM each time.
Turning to `CC(=O)Nc1c(S(=O)(=O)c2ccccc2)c(C)c(C)n1CCN(C)C`, the TGI in [1], in [2], in test [17], in test [3], in [4] and in test [5] was over 100 µM throughout. In addition, the TGI in [6], in test [7], in test [9], in [10], in [11] and in test [12] was over 100 µM throughout. Also, the TGI in [13], in test [14], in test [15] and in test [16] was over 100 µM in each case.
Regarding `CCc1ccccc1N=NC(=O)NNc1ccccc1CC`, the TGI is 28.6 µM in [1]; 31.7 µM in test [2]; 33.6 µM in [17]; 39.8 µM in test [6]; 39.8 µM in test [7]; 33.7 µM in test [8]. Also, the TGI in test [9] was determined as 50.1 µM; in test [10] it was 31.9 µM; in test [11], 34.3 µM; in [12], 32.2 µM; in test [13], 34.7 µM; in test [15] it was 36.3 µM. For the same compound, the TGI in [16] was determined as 23 µM.
In the case of `CCc1n[nH]c(=O)n1/N=C/c1ccccc1O`, the TGI in [1], in test [2], in test [17], in [3], in test [4] and in test [5] was over 100 µM throughout. Further, the TGI in test [6], in test [7], in [8], in test [9], in test [10] and in [11] was over 100 µM in each case. The TGI in test [13], in [14], in test [15] and in test [16] was over 100 µM throughout.
Take `CC(NC(=O)/C(=C/c1ccccc1)NC(=O)c1ccccc1)C(=O)O` (stereo not given): the TGI in [1], in test [2], in test [17], in [3], in test [4] and in test [5] was over 100 µM each time. Also, the TGI in test [6], in test [7], in test [8], in test [10], in [11] and in test [12] was over 100 µM in each case. Besides, the TGI in test [13], in test [14], in [15] and in test [16] was over 100 µM in each case.
As to `COc1ccc(N=Nc2c(C)c(C#N)c(=S)n(C3OC(CO)C(O)C(O)C3O)c2-c2ccccc2)cc1` (stereo not given), the TGI in test [1] was 27.8 µM; in test [2], 89.7 µM; in test [17], over 100 µM; in test [4], over 100 µM; in test [6] it was 98 µM; in test [7] it was over 100 µM. For the same compound, the TGI in [8] was 99.6 µM; in [9], 94.8 µM; in [10] it was over 100 µM; in test [11], 97.6 µM; in [12], 97.3 µM; in [13], 76.8 µM. In addition, the figures for the TGI in test [14], in test [15] and in [16] were over 100 µM, 84.7 µM and 47.6 µM, respectively.
Regarding `Cc1ccc(NC(Nc2ccc(C)cc2C)=C(C(Cl)=C(Cl)Cl)[N+](=O)[O-])c(C)c1`, the TGI was 14.4 µM in test [1]; 27.9 µM in [17]; 29.8 µM in [3]; over 100 µM in test [4]; 31.7 µM in test [5]; 20 µM in test [6]. The TGI in test [7] turned out to be 26.6 µM; in test [8], 20.4 µM; in test [9], 33 µM; in [10] it was 28.4 µM; in test [11], 38.8 µM; in [12] it was 32.1 µM. In addition, the TGI in test [13] is 21.3 µM; in test [14], 29.2 µM; in [15], over 100 µM; in test [16], 31.9 µM.
